Entries after “also recorded” stand apart in the source; their conditions may differ.
What was measured:
[1] = system: HCV IRES-dependent translation of Renilla luciferase; experiment: in vitro translation of bicistronic luciferase reporter in rabbit reticulocyte lysate, Renilla luciferase; assay type: biochemical; conditions: Cycloheximide 600 μM, Silvestrol 100 nM
From the text: A bicistronic luciferase reporter ([…]) (FIG. 7B, top) was programmed into rabbit reticulocyte lysates, cellular extracts capable of performing both cap-dependent and Hepatitis C virus (HCV) internal ribosomal entry site (IRES)-mediated translation. eIF4A is the enzymatic driver of cap-dependent translation and is not involved in translation through HCV IRES. Compounds that inhibit eIF4A should inhibit cap-dependent translation of firefly (FF) luciferase while leaving IRES-mediated translation of Renilla (Ren) luciferase relatively unaffected. The inhibitory activities of cycloheximide, silvestrol, and 28 were assessed in this in vitro translation assay (FIG. 7B, bottom). […] The ability of compound 28 to preferentially target cap-dependent translation in a similar manner as silvestrol provides promising evidence that 28 inhibits eIF4A and not other proteins in the general translational machinery.
The dual-luciferase reporter plasmid pSP/(CAG)33/FF/HCV/Ren-pA51 was linearized with BamHI and subsequently in vitro transcribed using the Promega mMessage mMachine SP6 transcription kit, according to manufacturer's specifications. RNA was precipitated with LiCI and resuspended in H2O for use in in vitro translation experiments. Rabbit reticulocyte lysate (RRL) (nuclease-treated, Promega) was used to assess inhibitory effects of 28 on translation of the dual-reporter. Briefly, a reaction consisting of 50% RRL, 30 ng/μL reporter RNA, 10 μM Amino Acid Mixture Minus Methionine, 10 μM Amino Acid Mixture Minus Leucine, […], 1 U/μL RNAseOut (Thermo), and drug (final DMSO concentration 1%) were incubated at 30° C. for 90 minutes. The reaction was quenched with 50 μL 1× Passive Lysis Buffer (Promega), 10 μL of the mix was transferred to a 96-well white plate (Cellstar), and the Dual-Reporter Luciferase Assay System (Promega) was used to generate luminescence according to the manufacturer's instructions. Luminescence was detected using a plate reader (BioTek HT Synergy).

eIF4A [2] = target: T1, eIF4A (Homo sapiens, UniProt P60842); experiment: MANT-ATP fluorescence polarization assay; assay type: binding; parameters: 6xHis with TEV protease site (N, cleaved yes); made in house; host or cells: E. coli BL21-CodonPlus; conditions: compound 200 μM or ADP 1 mM; MANT-ATP 100 nM
Description: Additional biochemical testing was performed on compound 28 to investigate its mechanism of eIF4A inhibition. Initially, kinetics experiments were repeated with compound 28, and the results for compound 28 matched those of compound 1 (FIG. 5D, 4A). Upon addition of compound 28, Km and Vmax of eIF4A decreased with respect to ATP. With respect to RNA, eIF4A Km […] and Vmax remained constant. […] Fluorescence polarization (FP) assays were utilized to confirm this mechanism of inhibition by testing the ability of compound 28 to compete fluorescent substrates off eIF4A. First, an FP assay was performed with MANT-ATP, a fluorescent, non-hydrolysable ATP analog, as the substrate.
MANT-ATP fluorescence polarization assay. Recombinant eIF4A (15 μM) was added to a low-volume black 384 well plate (Greiner). Yeast RNA (0.25 mg/mL) was added along with compound (200 μM) or ADP (1 mM) and the plate was incubated for 20 min. MANT-ATP was added (100 nM) and the plate was incubated for 30 min before fluorescence polarization was read at 355 nm:448 nm (Ex:Em) on a SpectraMax iD5 plate reader (Molecular Devices).
Target sequence in this assay (P60842 whole entry): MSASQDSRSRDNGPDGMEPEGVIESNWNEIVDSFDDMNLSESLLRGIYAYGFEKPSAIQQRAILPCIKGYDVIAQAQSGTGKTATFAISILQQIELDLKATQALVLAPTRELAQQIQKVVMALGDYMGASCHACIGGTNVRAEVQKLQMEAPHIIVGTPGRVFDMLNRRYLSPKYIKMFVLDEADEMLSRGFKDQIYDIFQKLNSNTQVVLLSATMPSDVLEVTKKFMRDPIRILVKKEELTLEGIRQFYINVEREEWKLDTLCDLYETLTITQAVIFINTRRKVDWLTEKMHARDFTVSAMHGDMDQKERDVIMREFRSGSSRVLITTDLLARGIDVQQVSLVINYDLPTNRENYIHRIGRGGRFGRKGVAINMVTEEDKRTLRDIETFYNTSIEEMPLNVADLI

eIF4A [3] = target: T1, eIF4A; experiment: Thermal Shift Assay (TSA)/Differential Scanning Fluorimetry (DSF); assay type: binding; parameters: 6xHis with TEV protease site (N, cleaved yes); made in house; host or cells: E. coli BL21-CodonPlus; conditions: 5 μM eIF4A, 2 mM AMPPNP
Description: Further evidence of this was uncovered in a thermal shift assay (TSA) using DSF with eIF4A and compound 28. […] Larger doses of compound 28 caused larger melting temperature (Tm) shifts in this assay, which argues that compound 28 is directly binding eIF4A.
Thermal Shift Assay (TSA)/Differential Scanning Fluorimetry (DSF). TSA/DSF experiments were performed on a Lightcycler 480 II (Roche Molecular Systems). eIF4A (5 μM) in buffer (20 mM Tris (pH 7.5), 10% glycerol, 0.1 mM EDTA, 2 mM DTT, 2 mM AMPPNP, 4% DMSO) was added to 96-well PCR plates (USA Scientific, Inc.) with or without compound. After a 5 min incubation, SYPRO orange dye was added to a final concentration of 5×. Samples were melted over a gradient from 20 to 85° C. with 20 acquisitions per ° C. at a ramp rate of 0.03° C./s.
Target sequence in this assay (P60842 whole entry): as above

eIF4A [4] = target: T1, eIF4A; experiment: Cellular Thermal Shift Assay (CETSA) in A549 cells; assay type: cell-based; parameters: endogenous in cells; host or cells: A549 cells; conditions: 90 min, 55° C., silvestrol 100 nM
Description: In CETSA, thermal stability of a protein is assessed by heating cells and then separating insoluble, aggregated, or denatured proteins from soluble proteins through supernatant/pellet fractionation. Levels of the protein of interest (eIF4A) remaining in the soluble fraction are then measured by western blot. The principle of CETSA is similar to differential scanning fluorimetry (DSF), in that thermal stability and solubility of a protein increases upon binding a ligand.
Cellular Thermal Shift Assay (CETSA). A549 cells were seeded into wells in 6-well plates and on the following day were exposed to 28 or silvestrol (100 nM) for 90 min. Cells were harvested, resuspended in 50 μL DMEM, and dispensed into thin-walled PCR tubes. Cells were subjected to 3 min of heat at 55° C. in a thermocycler (miniPCR). After heating, cells were left to cool for 3 min and then snap-frozen on dry ice. Cells were subjected to 3 rapid freeze thaws with 15 seconds of vortexing after each thaw. After the first thaw, 1 μL of a dissolved Pierce protease inhibitor tablet (ThermoFisher—A32963) was added to the cell lysate. Cell lysates were centrifuged at 20,000×g for 20 min. […] All immunoblot images were taken using the Azure 600 imaging system (Azure Biosystems) and analyzed using ImageJ 1.51s (NIH). […]
Target sequence in this assay (P60842 2-406): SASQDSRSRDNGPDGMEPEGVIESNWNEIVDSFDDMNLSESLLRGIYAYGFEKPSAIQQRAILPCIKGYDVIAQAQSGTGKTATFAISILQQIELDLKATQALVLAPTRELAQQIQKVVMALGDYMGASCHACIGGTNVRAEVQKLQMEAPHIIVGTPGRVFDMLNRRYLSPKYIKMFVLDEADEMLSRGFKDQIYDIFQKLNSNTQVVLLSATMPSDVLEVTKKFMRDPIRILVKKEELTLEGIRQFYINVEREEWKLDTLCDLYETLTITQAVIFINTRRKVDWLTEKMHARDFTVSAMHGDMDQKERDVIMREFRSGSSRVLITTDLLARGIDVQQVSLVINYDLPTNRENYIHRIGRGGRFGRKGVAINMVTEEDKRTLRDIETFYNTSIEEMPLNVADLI

Q: `CCCCc1ccc(-c2ccc(-c3cc(C(=O)O)c4cc([N+](=O)[O-])ccc4n3)o2)cc1` [Compound 28, 2-(5-(4-butylphenyl)furan-2-yl)-6-nitroquinoline-4-carboxylic acid] was tested. Which “effect on HCV IRES-mediated translation (Renilla luciferase)” value [1] did it give?
A: Its value is “only show a modest effect on HCV IRES-dependent translation of Renilla luciferase”.

Q: And the “competition of MANT-ATP off eIF4A” value (eIF4A [2])?
A: Its value is “not an ATP-competitive inhibitor”.

Q: What about the “eIF4A thermal stability / melting temperature (TSA)” value (eIF4A [3]) of the same compound?
A: Its value is “increased eIF4A stability”.

Q: What about the “thermal stability of eIF4A in cells (CETSA)” value (eIF4A [4]) of the same compound?
A: Its value is “dose-dependent increase in thermal stability of eIF4A; also recorded: engages eIF4A in cells”.

Reference: patent US20240360107A1, “AN EIF4A INHIBITOR WITH A NOVEL MECHANISM OF ACTION” (ARIZONA BOARD OF REGENTS ON BEHALF OF THE UNIVERSITY OF …, priority 2021, published 2024)
